From patent US20050209157A1, “Short bioactive peptides and methods for their use” (priority 2001, published 2005)
Values after ≈ are worked out from the molar mass of the structure shown. Read-outs that look alike come from different tables or passages of the source. No end group written: not given here.

Assays:
[1] = system: S. pyogenes M76; assay: Antimicrobial assays II, NCCLS broth microdilution MIC; assay type: cell-based, Streptococcus pyogenes; settings: mean of three; 16 to 20 hours at 35° C.
[2] = system: PC3; assay: Anti-cancer assay, MTT, LD50; assay type: cell-based; settings: 24 hours with peptide, prostate adenocarcinoma
Text: (§1) Numbers are LD50 values (μg/mL).

[3] = system: H1299; assay: Anti-cancer assay, MTT, LD50; assay type: cell-based; settings: 24 hours with peptide, lung large cell carcinoma
Text: as §1

[4] = system: BMKC; assay: Anti-cancer assay, MTT, LD50; assay type: cell-based; settings: BMKC cloned melanoma line, 24 hours with peptide
Text: as §1

[5] = system: HeLaS3; assay: Anti-cancer assay, MTT, LD50; assay type: cell-based; settings: 24 hours with peptide, cervical carcinoma
Text: as §1

[6] = system: SW480; assay: Anti-cancer assay, MTT, LD50; assay type: cell-based; settings: SW480 colon adenocarcinoma line, 24 hours with peptide
Text: as §1

[7] = system: MCF7; assay: Anti-cancer assay, MTT, LD50; assay type: cell-based; settings: MCF7 breast adenocarcinoma line, MTT, 24 hours with peptide
Text: as §1

[8] = system: S. pneumoniae C718; assay: Antimicrobial assays II, NCCLS broth microdilution MIC; assay type: cell-based, Streptococcus pneumoniae; settings: mean of three
[9] = system: S. epidermidis C621; assay type: cell-based, Staphylococcus epidermidis; settings: mean of three; 16 to 20 hours at 35° C.
[10] = system: S. typhimurium 14028S; assay type: cell-based, Salmonella typhimurium; settings: mean of three; 16 to 20 hours at 35° C.; in µg/mL
[11] = in vitro; assay type: cell-based, human; settings: human, human red blood cells
[12] = system: P. aeruginosa H374; assay type: cell-based, Pseudomonas aeruginosa; settings: mean of three; 16 to 20 hours at 35° C.
[13] = system: S. pneumoniae C719; assay: Antimicrobial assays II, NCCLS broth microdilution MIC; assay type: cell-based, Streptococcus pneumoniae; settings: mean of three, in µg/mL
[14] = system: P. aeruginosa H374; assay type: cell-based, Pseudomonas aeruginosa; settings: for MIC Cm-comb.: MIC of chloramphenicol with peptide at ¼ MIC; for MIC Nal-comb.: MIC of nalidixic acid with peptide at ¼ MIC; for FIC Index: 0.5 or less = synergy
How it was run: (§2)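 FIC index, computed as 0.25 plus the ratio of combination to single-agent antibiotic MIC, defines synergy when 0.5 or below. Peptide fixed at one quarter MIC while chloramphenicol or nalidixic acid was serially diluted two-fold; antibiotic-alone MICs served as baselines.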

[15] = system: P. aeruginosa; assay type: cell-based, Pseudomonas aeruginosa; settings: P. aeruginosa H744; MIC of nalidixic acid with peptide at ¼ MIC
How it was run: as §2

[16] = system: P. aeruginosa H774; assay type: cell-based, Pseudomonas aeruginosa; settings: P. aeruginosa H744; nalidixic acid + peptide at ¼ MIC; 0.5 or less = synergy
How it was run: as §2

[17] = system: WI38; settings: MTT, 24 hours with peptide; for WI38 LD50: normal fibroblast line
[18] = system: S. pyogenes ATCC19615; assay: Antimicrobial assays II, NCCLS broth microdilution MIC; assay type: cell-based, Streptococcus pyogenes; settings: mean of three, in µg/mL
[19] = in vitro; settings: human, WI38 normal lung fibroblast cells
[20] = system: P. acne ATCC 6919; assay: Antimicrobial assays II, NCCLS broth microdilution MIC; assay type: cell-based, Propionibacterium acnes; settings: mean of three, in µg/mL
[21] = system: S. aureus (MRSA); assay type: cell-based, Staphylococcus aureus; settings: mean of three; 16 to 20 hours at 35° C.
[22] = system: E. coli UB1005; assay type: cell-based, Escherichia coli; settings: mean of three; 16 to 20 hours at 35° C.; in µg/mL
[23] = system: fungal; assay: Presently preferred antifungal peptides, selected from the MIC/MBC data; assay type: cell-based; settings: X = preferred
Text: The peptide's “length” is the number of amino acid residues in the sequence.

[24] = system: yeast (Saccharomyces cerevisiae); assay: Antimicrobial assay I, yeast assay in RPMI 1640; assay type: cell-based; settings: RPMI 1640 media
[25] = system: Pseudomonas aeruginosa ATCC 9027; assay: Antimicrobial assay I, MIC by OD measurement; assay type: cell-based; settings: 37° C. for 24 hours, absorbance 620 nm
[26] = system: Staphylococcus aureus ATCC 6538; assay: Antimicrobial assay I, MIC by OD measurement; assay type: cell-based; settings: 37° C. for 24 hours, absorbance 620 nm
[27] = system: human red blood cells (RBC); assay: in vitro; assay type: cell-based; settings: hemolytic assay, concentration at 50% hemolysis, 1 hour at 37° C.
[28] = system: Escherichia coli ATCC 25922; assay: Antimicrobial assay I, modified protocol (tryptic soy broth), MBC; settings: minimum bactericidal concentration, Table 4
Method: (§3) The preparation of all media, stock solutions, and dilutions took place in a laminar flow hood to prevent contamination. Bacterial cells were freshly grown on antibiotic medium 2 agar slants (pH 7.0 at 25° C.). Bacteria were suspended and diluted in antibiotic medium 3 to about 10^4 cfu/ml and used as the inoculum. Sample solutions (100 μl/well) were added to plates according to the plate layout. Inoculum (100 μl/well) was added to achieve a final concentration of 5×10^3 cfu/ml. Negative controls received 100 μl saline and 100 μl growth medium. Positive controls received 100 μl saline and 100 μl inoculum. Bacterial plates were incubated at 37° C. for 24 hours.
(§4) However, the data for Table 4 were obtained with a modified protocol wherein the medium was tryptic soy broth, inocolum strength was approximately 10^4 CFU per ml, and values determined were minimum bactericidal concentrations (MBC) or minimum fungicidal concentrations (MFC).
(§5) MBC or MFC values are in μg/mL. E. coli is Escherichia coli ATCC accession number 25922; P. aerug is Pseudomonas aeruginosa ATCC accession number 27853, S. aur. is Stapholococcus aureus ATCC accession number 25923; Candida is Candida albicans ATCC accession number 10231.

[29] = system: Pseudomonas aeruginosa ATCC 27853; assay: as above; settings: minimum bactericidal concentration, Table 4
Method: as §3, §4, §5

[30] = pH 7, hemolytic assay, concentration at 50% hemolysis, 1 hour at 37° C., read-out: LD50
[31] = chloramphenicol + peptide at ¼ MIC
[32] = nalidixic acid + peptide at ¼ MIC, FIC=0.25+MIC comb/MIC alone
[33] = LD50 WI38, WI38 normal lung fibroblast line, MTT, 24 hours with peptide

Row | Compound | S. pyogenes M76 MIC [1] | PC3 LD50 [2] | H1299 LD50 [3] | LD50 BMKC [4] | HeLaS3 LD50 [5] | LD50 SW480 [6] | LD50 MCF7 [7] | S. pneumoniae MIC [8] | S. epidermidis C621 MIC [9] | S. pneumoniae MIC [13] | MIC Cm-comb. [14] | MIC Nal-comb. [14] | FIC Index [14, 31] | FIC Index [14, 32] | MIC Nal-comb. [15] | FIC Index [16] | WI38 LD50 [17] | S. pyogenes MIC [18] | P. acne MIC [20] | S. aureus (MRSA) MIC [21] | further results
1 | CC(C)C[C@H](NC(=O)[C@H](C)NC(=O)[C@H](CC(C)C)NC(=O)[C@H](CCCCN)NC(=O)[C@H](C)NC(=O)[C@H](CC(C)C)NC(=O)[C@H](CCCCN)NC(=O)[C@H](CCCCN)NC(=O)[C@H](C)NC(=O)[C@H](CC(C)C)NC(=O)[C@H](CCCCN)NC(=O)[C@H](C)NC(=O)[C@H](CC(C)C)NC(=O)[C@H](CCCCN)NC(=O)[C@H](CCCCN)NC(=O)[C@H](C)NC(=O)[C@@H](N)Cc1ccccc1)C(=O)O [P61] | 16 µg/mL | 66 µg/mL | 127 µg/mL | 140 µg/mL | 170 µg/mL | 100 µg/mL | 105 µg/mL | 128 µg/mL | 8 µg/mL | 32 | 16 µg/mL | 5000 µg/mL | 1.25 | 1.25 | 624 µg/mL | 1.25 | 93 µg/mL | 16 | 2 | 32 µg/mL | S. typhimurium 14028S MIC [10]: 4; HC50 at 1 h [11, 30]: 390 µg/mL; P. aeruginosa H374 MIC [12]: 4 µg/mL; CC50 at 24 h [19, 33]: 93 µg/mL (≈ 50.1 µM); E. coli UB1005 MIC [22]: 2
2 | CC(C)C[C@H](NC(=O)[C@H](C)NC(=O)[C@H](CCCCN)NC(=O)[C@H](CC(C)C)NC(=O)[C@H](C)NC(=O)[C@H](CC(C)C)NC(=O)[C@H](C)NC(=O)[C@H](CC(C)C)NC(=O)[C@H](CCCCN)NC(=O)[C@H](C)NC(=O)[C@H](CC(C)C)NC(=O)[C@H](CCCCN)NC(=O)[C@H](CCCCN)NC(=O)[C@H](C)NC(=O)[C@H](CC(C)C)NC(=O)[C@H](CCCCN)NC(=O)[C@H](CCCCN)NC(=O)[C@H](CC(C)C)NC(=O)[C@H](CCCCN)NC(=O)[C@H](CCCCN)NC(=O)[C@H](C)NC(=O)[C@H](CC(C)C)NC(=O)[C@H](CCCCN)NC(=O)[C@H](CCCCN)NC(=O)[C@H](C)NC(=O)[C@@H](N)Cc1ccccc1)C(=O)N[C@@H](C)C(=O)N[C@@H](CC(C)C)C(=O)N[C@@H](CCCCN)C(=O)N[C@@H](C)C(=O)O [compound 100] | – | – | – | – | – | – | – | – | – | – | – | – | – | – | – | – | – | – | – | – | Anti-fungal (preferred peptide) [23]: X (Preferred antifungal peptides can be selected as having MIC or MBC values of less than or equal to about 25 μg/ml)
3 | FAKLAKKLL-NH2 [P60] | 8 µg/mL | > (> indicates greater than 1000) | > (> indicates greater than 1000) | > (> indicates greater than 1000) | > (> indicates greater than 1000) | > (> indicates greater than 1000) | > (> indicates greater than 1000) | 128 µg/mL | 4 µg/mL | >128 | 4 µg/mL | 1250 µg/mL | 0.5 | 0.5 | 624 µg/mL | 1.25 | > (> indicates greater than 1000) | 8 | 4 | 32 µg/mL | yeast (MIC or MFC) [24]: 200 µg/mL; paerug9027 (MIC) [25]: 100 µg/mL; staph6538 (MIC) [26]: 200 µg/mL; LD50 [27]: > (> indicates greater than 1000); LD50 WI38 ([17]; WI38 normal lung fibroblast line): > (> indicates greater than 1000)
4 | FAKKLAKKLKKLAKLALAK-NH2 [P41] | 8 µg/mL | 140 µg/mL | 245 µg/mL | 290 µg/mL | 185 µg/mL | 120 µg/mL | 98 µg/mL | 64 µg/mL | 4 µg/mL | 32 | 16 µg/mL | 5000 µg/mL | 1.25 | 1.25 | 624 µg/mL | 1.25 | 175 µg/mL | 8 | 4 | 64 µg/mL | paerug9027 (MIC) [25]: 10 µg/mL; staph6538 (MIC) [26]: 10 µg/mL; S. typhimurium 14028S MIC [10]: 4; HC50 at 1 h [11, 30]: 40 µg/mL; P. aeruginosa H374 MIC [12]: 4 µg/mL; CC50 at 24 h [19, 33]: 175 µg/mL; E. coli UB1005 MIC [22]: 2
5 | VALALKALKKLLKKLKKLAKKAL-NH2 [compound 510] | – | – | – | – | – | – | – | – | – | – | – | – | – | – | – | – | – | – | – | – | Anti-fungal (preferred peptide) [23]: X (Preferred antifungal peptides can be selected as having MIC or MBC values of less than or equal to about 25 μg/ml); HC50 at 1 h ([11]; pH 7, Table 26, valine substitution, read-out: Hemolysis RBC LD50): 10 µg/mL; CC50 at 24 h ([19]; WI-38 LD50, Table 26, valine substitution): 77 µg/mL
6 | FAKLLAKALKKFL-NH2 [compound 118] | – | – | – | – | – | – | – | – | – | – | – | – | – | – | – | – | – | – | – | – | Anti-fungal (preferred peptide) [23]: X (Preferred antifungal peptides can be selected as having MIC or MBC values of less than or equal to about 25 μg/ml); MBC E. coli A.25922 [28]: 8 µg/mL; MBC P. aerug A.27853 [29]: 25 µg/mL
